Reference: patent US10961215B2, “N-aryl and N-heteroaryl piperidine derivatives as liver X receptor beta agonists, compositions, and their use” (Merck Sharp & Dohme Corp., priority 2016, dated 2021)

Key:
[1] = biological target: T1, GST tagged LXRalpha LBD (ligand binding domain) (Homo sapiens, UniProt Q13133); test: LanthaScreen TR-FRET Liver X Receptor Coactivator Assay, LXR alpha-LBD (co-activator recruitment; IP and % Emax relative to T0901317); assay type: biochemical; settings: for LXR alpha IP (nM) / EC50: Inflection Point of co-activator recruitment, LXR alpha-LBD, TR-FRET; for Emax: read-out: LXR alpha actiivty at max dose (%)
T1 construct: purchased Invitrogen pv4655
T1 sequence (Q13133 209-447 limits assumed): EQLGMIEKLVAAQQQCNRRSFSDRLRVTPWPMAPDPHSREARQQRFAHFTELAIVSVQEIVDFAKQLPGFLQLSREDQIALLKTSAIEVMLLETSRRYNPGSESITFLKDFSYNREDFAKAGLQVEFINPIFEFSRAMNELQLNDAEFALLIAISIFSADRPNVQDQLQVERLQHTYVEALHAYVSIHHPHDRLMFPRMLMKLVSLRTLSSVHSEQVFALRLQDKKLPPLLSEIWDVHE
Outline: (§1)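 LXR LBD protein was added to test compounds, then a mix of fluorescein-labelled coactivator peptide and terbium anti-GST antibody. After incubation at room temperature, TR-FRET was read. Inflection point and Emax were derived relative to the reference dual agonist T0901317.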

[2] = biological target: T2, GST tagged LXRbeta LBD (ligand binding domain) (Homo sapiens, UniProt P55055); test: LanthaScreen TR-FRET Liver X Receptor Coactivator Assay, LXR beta-LBD (co-activator recruitment; IP and % Emax relative to T0901317); assay type: biochemical; settings: for EC50: Inflection Point of co-activator recruitment, LXR beta-LBD, TR-FRET; for Emax: read-out: LXR beta actiivty at max dose (%)
T2 construct: purchased Invitrogen pv4658.pps
T2 sequence (P55055 222-460 limits assumed): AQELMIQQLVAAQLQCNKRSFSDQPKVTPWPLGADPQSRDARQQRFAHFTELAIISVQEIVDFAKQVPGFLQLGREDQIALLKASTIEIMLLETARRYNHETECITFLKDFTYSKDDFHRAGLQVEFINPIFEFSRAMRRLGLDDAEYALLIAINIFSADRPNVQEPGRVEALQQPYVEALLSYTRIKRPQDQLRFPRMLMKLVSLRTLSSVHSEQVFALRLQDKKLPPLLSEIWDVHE
Outline: as §1

[3] = efficacy at max dose in relation to reference T0901317, LXR alpha-LBD
[4] = efficacy at max dose in relation to reference T0901317, LXR beta-LBD

Row | SMILES | LXR alpha IP (nM) [1] | Emax [1, 3] | EC50 [2] | Emax [2, 4] | EC50 [1] | LXR alpha actiivty at max dose (%) [1, 3] | LXR beta actiivty at max dose (%) [2, 4]
1 | CCOc1cccc([C@@](O)(C(=O)NCCCC2CCN(c3ccc(C(=O)N(C)C)c(Cl)n3)CC2)C(F)(F)F)c1 [Example 5-10, (R)-2-chloro-6-(4-(3-(2-(3-ethoxyphenyl)-3,3,3-trifluoro-2-hydroxy-propanamido)propyl)piperidin-1-yl)-N,N-dimethylnicotinamide] | No IP | 3% | 343 nM | 58% |  |  | 
2 | COc1cccc([C@@](O)(C(=O)N(C)CCC2CC3(CCN(c4ccc(C(=O)NC5CC5)c(Cl)n4)CC3)C2)C(F)(F)F)c1 [Example 13-3, 2-chloro-N-cyclopropyl-6-(2-(2-((R)-3,3,3-trifluoro-2-hydroxy-2-(3-methoxyphenyl)-N-methylpropanamido)ethyl)-7-azaspiro[3.5]nonan-7-yl)nicotinamide] | No IP | 1% | 654 nM | 35% |  |  | 
3 | CN(C)C(=O)c1ccc(N2CCC(CCCNC(=O)[C@](O)(c3cccc(O)c3)C(F)(F)F)CC2)nc1Cl [Example 5-22, (R)-2-chloro-N,N-dimethyl-6-(4-(3-(3,3,3-trifluoro-2-hydroxy-2-(3-hydroxyphenyl)propanamido)propyl)piperidin-1-yl)nicotinamide] |  | 31% | 1190 nM | 101% | 10300 nM |  | 
4 | COc1cccc([C@@](O)(C(=O)NC2CC(CC3CCN(c4ccc(C(=O)N(C)C)c(Cl)c4)CC3)C2)C(F)(F)F)c1 (stereo partly drawn) [Example 11-6, (R)-2-chloro-N,N-dimethyl-4-(4-((3-(3,3,3-trifluoro-2-hydroxy-2-(3-methoxyphenyl)propanamido)cyclobutyl)methyl)piperidin-1-yl)benzamide] | No IP | 3% | 561 nM | 54% |  |  | 
5 | CN(C)C(=O)c1ccc(N2CCC(CCCNC(=O)C(O)(c3ccccc3)C(F)(F)F)CC2)cc1Cl (stereo not shown) [Example 5-1, 2-chloro-N,N-dimethyl-4-(4-(3-(3,3,3-trifluoro-2-hydroxy-2-phenylpropanamido)propyl)piperidin-1-yl)benzamide] |  | 14% | 610 nM | 95% | 3510 nM |  | 
6 | COc1cccc([C@](O)(C(=O)N(C)C[C@@H]2C[C@@H]2CC2CCN(c3ccc(C(=O)N(C)C)c(Cl)n3)CC2)C(F)(F)F)c1 [Example 18-3, 2-chloro-N,N-dimethyl-6-(4-(((1S,2R)-2-(((S)-3,3,3-trifluoro-2-hydroxy-2-(3-methoxyphenyl)-N-methylpropanamido)methyl)cyclopropyl)methyl)piperidin-1-yl)nicotinamide] | No IP | 0% | 518 nM | 25% |  |  | 
7 | CN(C)C(=O)c1ccc(N2CCC(CCCNC(=O)C(O)(c3ccccc3)C(F)(F)C(F)(F)F)CC2)cc1Cl (stereo not shown) [Example 5-3, 2-chloro-N,N-dimethyl-4-(4-(3-(3,3,4,4,4-pentafluoro-2-hydroxy-2-phenyl-butanamido)propyl)piperidin-1-yl)benzamide] |  | 27% | 380 nM | 118% | 1670 nM |  | 
8 | CN(C)C(=O)c1ccc(N2CCC(CCCN(C)C(=O)[C@@]3(c4cccc(Cl)c4)CCCO3)CC2)nc1Cl [Example 1-63, (S)-2-chloro-6-(4-(3-(2-(3-chlorophenyl)-N-methyltetrahydrofuran-2-carboxamido)propyl)piperidin-1-y)-N,N-dimethylnicotinamide] | No IP | 0% | 368 nM | 40% |  |  | 
9 | CN(C)C(=O)c1ccc(N2CCC(CCCN(C)C(=O)C(O)(c3ccccc3)C(F)(F)F)CC2)cc1Cl (single isomer, unassigned) [Example 4-7, 2-chloro-N,N-dimethyl-4-(4-(3-(3,3,3-trifluoro-2-hydroxy-N-methyl-2-phenylpropanamido)propyl)piperidin-1-yl)benzamide] | No IP |  | 369 nM |  |  | 12% | 48%

Stronger by EC50 [2], values ahead:

Row | LXR alpha IP (nM) [1] | Emax [1, 3] | EC50 [2] | Emax [2, 4] | EC50 [1] | LXR alpha actiivty at max dose (%) [1, 3] | LXR beta actiivty at max dose (%) [2, 4] | SMILES
10 | No IP | 0% | 271 nM | 64% |  |  |  | COc1cccc([C@@](O)(C(=O)N(C)CCCC2CCN(c3ccc(C(=O)N(C)C)c(C)n3)CC2)C(F)(F)F)c1 [Example 2-20, (R)-N,N,2-trimethyl-6-(4-(3-(3,3,3-trifluoro-2-hydroxy-2-(3-methoxyphenyl)-N-methylpropanamido)propyl)piperidin-1-yl)nicotinamide]
11 | No IP | 17% | 230 nM | 69% |  |  |  | COc1cccc([C@@](O)(C(=O)NCCCC2CCN(c3ccc(C(=O)N(C)C)c(Cl)n3)CC2)C(F)(F)F)c1.O=C(O)C(F)(F)F [Example 5-20, (R)-2-chloro-N,N-dimethyl-6-(4-(3-(3,3,3-trifluoro-2-hydroxy-2-(3-methoxyphenyl)propanamido)propyl)piperidin-1-yl)nicotinamide]
12 | No IP | 13% | 53 nM | 39% |  |  |  | COc1cccc([C@@](O)(C(=O)N(C)[C@H]2C[C@@H](C3CCN(c4ccc(C(=O)N(C)C)c(Cl)n4)CC3)C2)C(F)(F)F)c1 [Example 17-4, cis-2-chloro-N,N-dimethyl-6-(4-(-3-((R)-3,3,3-trifluoro-2-hydroxy-2-(3-methoxyphenyl)-N-methylpropanamido)cyclobutyl)piperidin-1-yl)nicotinamide]
13 | No IP | 1% | 304 nM | 49% |  |  |  | COc1cccc([C@@](O)(C(=O)NCC[C@H]2CC23CCN(c2ccc(C(=O)N(C)C(C)C)c(Cl)c2)CC3)C(F)(F)F)c1 [Example 7-31, 2-chloro-N-isopropyl-N-methyl-4-((R)-1-(2-((R)-3,3,3-trifluoro-2-hydroxy-2-(3-methoxy-phenyl)propanamido)ethyl)-6-azaspiro[2.5]octan-6-yl)benzamide]
14 |  | 57% | 144 nM | 94% | 2520 nM |  |  | CN(C)C(=O)c1ccc(N2CCC(CCCN(C)C(=O)[C@@]3(C(F)(F)F)CCCO3)CC2)nc1Cl [Example 1-7, (R)-2-chloro-N,N-dimethyl-6-(4-(3-(N-methyl-2-(trifluoromethyl)-tetrahydrofuran-2-carboxamido)propyl)piperidin-1-yl)nicotinamide]
15 |  | 51% | 106 nM | 81% | 1770 nM |  |  | CN(C)C(=O)c1ccc(N2CCC(CCCN(C)C(=O)[C@]3(C(F)(F)F)CCCO3)CC2)nc1Cl [Example 1-8, (S)-2-chloro-N,N-dimethyl-6-(4-(3-(N-methyl-2-(trifluoromethyl)-tetrahydrofuran-2-carboxamido)propyl)piperidin-1-yl)nicotinamide]
16 | No IP | 4% | 9 nM | 29% |  |  |  | CN(C)C(=O)c1ccc(N2CCC([C@H]3C[C@H]3CN(C)C(=O)[C@](O)(c3cc(Cl)cc(Cl)c3)C(F)(F)F)CC2)nc1Cl [Example 15-6, 2-chloro-6-(4-((1R,2R)-2-(((R)-2-(3,5-dichlorophenyl)-3,3,3-trifluoro-2-hydroxy-N-methylpropanamido)methyl)cyclopropyl)piperidin-1-yl)-N,N-dimethylnicotinamdie]
17 | No IP | 16% | 25 nM | 70% |  |  |  | COc1cccc([C@@](O)(C(=O)N(C)C[C@H](C)CC2CCN(c3ccc(C(=O)N(C)C)c(Cl)n3)CC2)C(F)(F)F)c1 (single isomer, unassigned) [Example 3-1]
18 | No IP | 4% | 218 nM | 25% |  |  |  | COc1cccc([C@@](O)(C(=O)N(C)CCCC2(F)CCN(c3ccc(C(=O)N(C)C)c(Cl)c3)CC2)C(F)(F)F)c1 [Example 12-2, (R)-2-chloro-4-(4-fluoro-4-(3-(3,3,3-trifluoro-2-hydroxy-2-(3-methoxyphenyl)-N-methylpropanamido)propyl)piperidin-1-yl)-N,N-dimethylbenzamide]
19 | No IP | 0% | 76 nM | 55% |  |  |  | Cc1cccc([C@@](O)(C(=O)N(C)CCCC2CCN(c3ccc(C(=O)N(C)C)c(Cl)n3)CC2)C(F)(F)F)c1 [Example 1-15, (R)-2-chloro-N,N-dimethyl-6-(4-(3-(3,3,3-trifluoro-2-hydroxy-N-methyl-2-m-tolylpropanamido)propyl)piperidin-1-yl)nicotinamide]
